From ChEMBL document CHEMBL1150131, “New cytotoxic bis 5-alkylresorcinol derivatives from the leaves of Oncostemon bojerianum from the Madagascar rainforest” (J Nat Prod, 2002)
Converted amounts (≈) assume the structure as drawn.

What follows are molecules tested on A2780 (assay: Cytotoxicity against human A2780 cells).
Type: functional, cell-based

Row | SMILES | IC50
1 | CC(=O)Oc1cc(O)cc(CCCCCCCCCCCCCCCCc2cc(O)cc(OC(C)=O)c2)c1 [ONCOSTEMONOL F] | 9.5 µg/mL (≈ 18 µM)
2 | Oc1cc(O)cc(CCCCC/C=C\CCCCCCCc2cc(O)cc(O)c2)c1 | 9.8 µg/mL (≈ 23.8 µM)
3 | COc1cc(O)cc(CCCCCCC/C=C\CCCCCCCc2cc(O)cc(O)c2)c1 [ONCOSTEMONOL D] | 10 µg/mL (≈ 22 µM)
4 | CC(=O)Oc1cc(O)cc(CCCCCCC/C=C\CCCCCCCc2cc(O)cc(O)c2)c1 [ONCOSTEMONOL B] | 10.2 µg/mL (≈ 21.1 µM)
5 | Oc1cc(O)cc(CCCCCCC/C=C\CCCCCCCCCc2cc(O)cc(O)c2)c1 [ONCOSTEMONOL H] | 9.4 µg/mL (≈ 20.1 µM)
6 | CC(=O)Oc1cc(O)cc(CCCCCCC/C=C\CCCCCCCc2cc(O)cc(OC(C)=O)c2)c1 [ONCOSTEMONOL A] | 9.4 µg/mL (≈ 17.9 µM)
7 | COc1cc(O)cc(CCCCCCC/C=C\CCCCCCCc2cc(OC)cc(OC)c2)c1 [ONCOSTEMONOL E] | 9.8 µg/mL (≈ 20.3 µM)
8 | Oc1cc(O)cc(CCCCCCCCC/C=C\CCCCCCCCCc2cc(O)cc(O)c2)c1 [ONCOSTEMONOL G] | 10.2 µg/mL (≈ 20.5 µM)
9 | Oc1cc(O)cc(CCCCCCC/C=C\CCCCCCCc2cc(O)cc(O)c2)c1 | 10.2 µg/mL (≈ 23.1 µM)
10 | COc1cc(O)cc(CCCCCCC/C=C\CCCCCCCc2cc(O)cc(OC)c2)c1 [ONCOSTEMONOL C] | 9.8 µg/mL (≈ 20.9 µM)
